Laboratory results reported in patent publication US7855166B2, “Sulfonylamino(thio)carbonyl compounds” (Bayer Cropscience GmbH, priority 2005, dated 2010).

How the values were obtained:
[1] = tested on: weed plants such as Sinapis alba, Chrysanthemum segetum, Avena sativa, Stellaria media, Echinochloa crus-galli, Lolium multiflorum, Setaria viridis, Abutilon …; experiment: Pre-emergence effect on weeds (greenhouse pot test, visual scoring); assay type: in vivo; conditions: applied pre-emergence at a rate of 0.3 kg or less of active substance per hectare; scored after 3 to 4 weeks in comparison to untreated controls
[2] = tested on: weed plants such as Sinapis alba, Echinochloa crus-galli, Lolium multiflorum, Chrysanthemum segetum, Setaria viridis, Abutilon theophrasti, Amaranthus …; experiment: Post-emergence effect on weeds (greenhouse pot test, visual scoring); assay type: in vivo; conditions: applied post-emergence (three-leaf stage) at a rate of 0.3 kg or less of active substance per hectare; scored after about 3 to 4 weeks in comparison to untreated controls

| Compound | herbicidal action against weed plants (visual scoring of plant damage or emergence damage) [1] | herbicidal action against weed plants (effect scored visually) [2] |
| --- | --- | --- |
| CCCCOc1cccc(I)c1S(=O)(=O)NC(=O)n1nc(OCCC)n(C)c1=O [Compound 1.275] | very good herbidical action | very good herbicidal action |
| CCOc1nn(C(=O)NS(=O)(=O)c2c(I)cccc2C(F)(F)F)c(=O)n1C [Compound 1.136] | very good herbidical action | very good herbicidal action |
| COc1nn(C(=O)NS(=O)(=O)c2c(I)cccc2OC(F)F)c(=O)n1C [Compound 1.460] | very good herbidical action | very good herbicidal action |
| CCCOc1nn(C(=O)NS(=O)(=O)c2ccc(CCC)cc2I)c(=O)n1C [Compound 1.878] | very good herbidical action | very good herbicidal action |
| CCOc1cccc(I)c1S(=O)(=O)NC(=O)n1nc(OC)n(C)c1=O [Compound 1.211] | very good herbidical action | very good herbicidal action |
| CCOc1cccc(I)c1S(=O)(=O)NC(=O)n1nc(OCC)n(C2CC2)c1=O [Compound 1.221] | very good herbidical action | very good herbicidal action |
| CCCOc1nn(C(=O)NS(=O)(=O)c2c(I)cccc2OC(C)C(F)(F)F)c(=O)n1C1CC1 (centres unmarked) [Compound 1.535] | very good herbidical action | very good herbicidal action |
| COc1nn(C(=O)NS(=O)(=O)c2ccc(F)cc2I)c(=O)n1C [Compound 1.823] | very good herbidical action | very good herbicidal action |
| COc1nn(C(=O)NS(=O)(=O)c2c(I)cccc2OCC(C)C)c(=O)n1C [Compound 1.289] | very good herbidical action | very good herbicidal action |
| CCOc1nn(C(=O)NS(=O)(=O)c2c(Cl)cc(C(F)(F)F)cc2I)c(=O)n1C [Compound 1.843] | very good herbidical action | very good herbicidal action |
| CCCOc1nn(C(=O)NS(=O)(=O)c2ccc(Cl)cc2I)c(=O)n1C1CC1 [Compound 1.875] | very good herbidical action | very good herbicidal action |
| CCOc1nn(C(=O)NS(=O)(=O)c2c(I)cccc2C(F)(F)F)c(=O)n1C1CC1 [Compound 1.143] | very good herbidical action | very good herbicidal action |
| CCCOc1nn(C(=O)NS(=O)(=O)c2c(I)cccc2C(F)(F)F)c(=O)n1C [Compound 1.137] | very good herbidical action | very good herbicidal action |
| CCCOc1nn(C(=O)NS(=O)(=O)c2c(I)cccc2SC)c(=O)n1C1CC1 [Compound 1.586] | very good herbidical action | very good herbicidal action |
| CCOc1nn(C(=O)NS(=O)(=O)c2c(I)cccc2OC(C)C)c(=O)n1C [Compound 1.254] | very good herbidical action | very good herbicidal action |
| CCOc1nn(C(=O)NS(=O)(=O)c2c(I)cccc2OCC(F)(F)C(F)(F)F)c(=O)n1C1CC1 [Compound 1.555] | very good herbidical action | very good herbicidal action |
| CC(C)Oc1cccc(I)c1S(=O)(=O)NC(=O)n1nc(OC(C)C)n(C)c1=O [Compound 1.256] | very good herbidical action | very good herbicidal action |

| Compound | herbicidal action against weed plants (visual scoring of plant damage or emergence damage) [1] | herbicidal action against weed plants (effect scored visually) [2] |
| --- | --- | --- |
| CCCOc1nn(C(=O)NS(=O)(=O)c2c(F)cccc2I)c(=O)n1C1CC1 [Compound 1.028] | very good herbidical action | very good herbicidal action |
| COc1nn(C(=O)NS(=O)(=O)c2ccc(F)cc2I)c(=O)n1C1CC1 [Compound 1.825] | very good herbidical action | very good herbicidal action |
| CCCOc1nn(C(=O)NS(=O)(=O)c2c(I)cccc2OC(C)C(F)(F)F)c(=O)n1C (centres unmarked) [Compound 1.526] | very good herbidical action | very good herbicidal action |
| CCOc1nn(C(=O)NS(=O)(=O)c2c(I)cccc2OC(C)C(F)(F)F)c(=O)n1C1CC1 (centres unmarked) [Compound 1.532] | very good herbidical action | very good herbicidal action |
| CCOc1nn(C(=O)NS(=O)(=O)c2c(I)cccc2OC(F)F)c(=O)n1C1CC1 [Compound 1.470] | very good herbidical action | very good herbicidal action |
| CCCCc1ccc(S(=O)(=O)NC(=O)n2nc(OC)n(C3CC3)c2=O)c(I)c1 [Compound 1.886] | very good herbidical action | very good herbicidal action |
| COc1ccc(Cl)c(I)c1S(=O)(=O)NC(=O)n1nc(OC)n(C2CC2)c1=O [Compound 1.820] | very good herbidical action | very good herbicidal action |
| COc1nn(C(=O)NS(=O)(=O)c2c(I)cccc2OC(C)C(F)(F)F)c(=O)n1C (centres unmarked) [Compound 1.522] | very good herbidical action | very good herbicidal action |
| COc1nn(C(=O)NS(=O)(=O)c2c(I)cccc2OS(C)(=O)=O)c(=O)n1C1CC1 [Compound 1.716] | very good herbidical action | very good herbicidal action |
| O=C(NS(=O)(=O)c1ccc(C(F)(F)F)cc1I)n1nc(C2CC2)n(C2CC2)c1=O [Compound 1.892] | very good herbidical action | very good herbicidal action |
| COc1cccc(I)c1S(=O)(=O)NC(=O)n1nc(OC)n(C2CC2)c1=O [Compound 1.198] | very good herbidical action | very good herbicidal action |
| COc1cccc(I)c1S(=O)(=O)NC(=O)n1nc(OC(C)C)n(C)c1=O [Compound 1.196] | very good herbidical action | very good herbicidal action |
| CCCOc1cccc(I)c1S(=O)(=O)NC(=O)n1nc(OCC)n(C2CC2)c1=O [Compound 1.241] | very good herbidical action | very good herbicidal action |
| CC(C)Oc1nn(C(=O)NS(=O)(=O)c2c(I)cccc2OCC(F)(F)C(F)(F)F)c(=O)n1C [Compound 1.550] | very good herbidical action | very good herbicidal action |
| CCOc1nn(C(=O)NS(=O)(=O)c2ccc(Cl)cc2I)c(=O)n1C1CC1 [Compound 1.874] | very good herbidical action | very good herbicidal action |
| CCOc1nn(C(=O)NS(=O)(=O)c2c(Cl)ccc(Cl)c2I)c(=O)n1C [Compound 1.850] | very good herbidical action | very good herbicidal action |
| CCCOc1nn(C(=O)NS(=O)(=O)c2c(I)cccc2OCC(F)F)c(=O)n1C1CC1 [Compound 1.514] | very good herbidical action | very good herbicidal action |
